According to ChEMBL document CHEMBL5352403, “Monoamine oxidase inhibitors: A concise review with special emphasis on structure activity relationship studies” (Eur J Med Chem, 2022):

How the values were obtained:
[1] = target: T1, Amine oxidase [flavin-containing] B (Homo sapiens, UniProt P27338); assay: Reversible inhibition of recombinant human MAO-B assessed as inhibition constant incubated for 30 mins by dilution assay
T1 sequence (P27338 whole entry): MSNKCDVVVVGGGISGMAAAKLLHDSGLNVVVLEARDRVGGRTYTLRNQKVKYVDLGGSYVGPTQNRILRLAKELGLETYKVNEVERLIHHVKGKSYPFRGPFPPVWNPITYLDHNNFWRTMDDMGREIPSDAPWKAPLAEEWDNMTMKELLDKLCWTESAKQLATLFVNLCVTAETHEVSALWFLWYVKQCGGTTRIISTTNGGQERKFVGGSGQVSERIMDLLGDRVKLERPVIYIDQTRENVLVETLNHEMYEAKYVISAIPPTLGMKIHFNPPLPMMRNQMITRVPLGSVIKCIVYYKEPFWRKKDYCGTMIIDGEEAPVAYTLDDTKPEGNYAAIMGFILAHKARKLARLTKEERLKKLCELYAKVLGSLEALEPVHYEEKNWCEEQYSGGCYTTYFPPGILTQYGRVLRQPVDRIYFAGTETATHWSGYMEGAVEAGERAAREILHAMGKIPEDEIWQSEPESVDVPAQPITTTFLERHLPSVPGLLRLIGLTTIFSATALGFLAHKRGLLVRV

[2] = target: T1, Amine oxidase [flavin-containing] B; assay: Inhibition of recombinant human MAO-B using kynuramine as substrate incubated for 30 mins by fluorimetric analysis
[3] = target: T2, Amine oxidase [flavin-containing] A (Homo sapiens, UniProt P21397); assay: Inhibition of recombinant human MAO-A using kynuramine as substrate incubated for 30 mins by fluorimetric analysis
T2 sequence (P21397 whole entry): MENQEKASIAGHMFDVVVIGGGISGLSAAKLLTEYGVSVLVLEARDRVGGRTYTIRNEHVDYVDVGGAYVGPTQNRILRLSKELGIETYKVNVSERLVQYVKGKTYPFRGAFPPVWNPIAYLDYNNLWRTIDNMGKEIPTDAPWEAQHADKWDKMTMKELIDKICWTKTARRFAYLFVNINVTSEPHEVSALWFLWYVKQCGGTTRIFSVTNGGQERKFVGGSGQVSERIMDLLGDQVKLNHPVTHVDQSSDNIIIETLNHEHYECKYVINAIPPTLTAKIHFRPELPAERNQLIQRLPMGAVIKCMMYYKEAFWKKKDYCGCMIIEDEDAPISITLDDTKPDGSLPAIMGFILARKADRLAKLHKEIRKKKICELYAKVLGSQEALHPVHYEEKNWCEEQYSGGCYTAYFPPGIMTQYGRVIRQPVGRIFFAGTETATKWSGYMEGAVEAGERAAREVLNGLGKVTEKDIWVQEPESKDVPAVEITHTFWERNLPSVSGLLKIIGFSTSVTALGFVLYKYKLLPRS

[4] = target: T2, Amine oxidase [flavin-containing] A; assay: Inhibition of recombinant human MAO-A expressed in baculovirus infected BTI-TN-5B1-4 insect cells using p-tyramine as substrate incubated for 15 mins by Amplex Red reagent and horseradish peroxidase based fluorometric analysis
[5] = target: T2, Amine oxidase [flavin-containing] A; assay: Inhibition of recombinant human MAO-A using p-tyramine as substrate incubated for 45 mins by Amplex Red reagent and horseradish peroxidase based fluorescence microplate reader analysis

SMILES: O=C(/C=C/C=C/c1ccccc1)c1ccco1
- Ki [1]: 4 nM
- IC50 [2]: 2950 nM
- IC50 [3]: 17000 nM

SMILES: O=[N+]([O-])c1cccc2cc(-c3ccccc3)oc12
- IC50 [4]: 168 nM

SMILES: CC(C)(C)c1ccc(S(=O)(=O)N2CCN(C(c3ccccc3)c3ccccc3)CC2)cc1
- IC50 [5]: 120 nM
